In patent US10471054B2, “CDK1 inhibitors of acetyl chrysin mannich base derivatives, synthesis and use thereof” (priority 2016, dated 2019):

Experiments:
[1] = Dissolution in pH media; format: physicochemical; conditions: 37° C.
Description: (§1) CH-j is pKa 5.3, log P 1.63 in Octanol/Water at 37° C. […] (BA-j 77m/ml). CH-j belongs to BCS II (low solubility, high permeability) and solubility presents the pH dependence. […] CH-j is a pH dependent fast release. […] It is speculated that CH-j has more appropriate log P and solubility with more likely entering tissue cells than others solubility acetyl Chrysin Mannich base derivatives.

[2] = system: PBMCs, activated lymphocytes, human normal Liver cells; test: H2O2 level in blood and normal cells, PF1-H2O2 fluorescent probe; format: cell-based; conditions: CH-j: PBMCs and activated lymphocytes; BA-j: activated lymphocyte
Description: The cells are cancer cells (MCF-7, GBC-823, Hep G2) and normal cells (Liver, COS-7, PBMCs). According to the literature [Scientific Reports, 2015, 5: 13626; Anti-cancer Agents in Medicinal Chemistry, 2016, 16: 914-924.], in vitro cultured cells was given to CH-j 25 μM for 3.5 h, added PF1-H2O2 selective fluorescence probe 10 μM for 0.5 h and detected the concentration of H2O2 in cells, and performed fluorescence imaging by results shown in FIG. 1.
FIG. 1-3, FIG. 1-4, The fluorescence imaging by PF1-H2O2 10 μM is that CH-j […] for 4 h affected the level of H2O2 in MCF-7, GBC-823, Hep G2 and Liver.
FIG. 1-3: CH-j/BA-j affects the levels of H2O2 in blood cells, X-coordinate is the concentration of CH-j/BA-j concentration (μM), and Y-coordinate the intracellular levels of H2O2 (μM) for 4 h with PF1-H2O2 10 μM by Fluorescence Microplater Reader (488 nm/525 nm).

[3] = system: HIF-1β; test: HIF-1β expression in BGC-823, immune-printing; format: cell-based; conditions: 0, 2.5, 5, 10 μM for 1 h, then insulin
Description: BGC-823 was treated with 0, 2.5, 5, 10 μM CH-j for 1 h, then the 2 μM insulin was added, and 2 h were cultured, and the cells were collected and lysed.
FIG. 4: CH-j effect on the HIF-1 of BGC-823 was treated with 0, 2.5, 5, 10 μM CH-j for 1 h, then added 0.2 μM insulin culture for 24 h, and the HIF-1α and HIF-1β were determined by the immune imprinting method.

[4] = system: caspase-3, 8, 9; test: Caspase activity in BGC-823; format: cell-based; conditions: range of 0-10 μM, 24 h
Text: Caspase is a series of cysteinyl aspartate specific proteinase in the cytoplasm of protease with closely related to cell apoptosis, and participate in cell growth, differentiation and apoptosis regulation. Caspase is same key enzymes in apoptosis process and in the apoptosis of the mediated cells, there are almost all apoptotic signaling pathways involved in the pathway of caspase. […] Caspase-8 is an early starter for the induction of apoptosis, and the caspase-3 is the late executor. Pro-caspase-9 is dissociation with phosphorylation surviving, and inhibiting cell apoptosis and promoting division. Pro-caspase-9 by H2O2 is oxidized into caspase-9-S—S-caspase-9 with inhibiting cell division and inducing apoptosis. H2O2 can directly oxidize and activate caspase, hydrolyze antiapoptotic protein Bcl-2 and Bcl-xl substrate, so selectively induce apoptosis of cancer cells and reduce the damage of normal cells.
FIG. 3-4: caspases: X-coordinate is CH-j concentration (μM) and Y-coordinate the activity of caspase (%) for BGC-823.

[5] = biological target: CDK1 (Homo sapiens, UniProt P06493); test: CDK1 inhibition activity; format: biochemical
[6] = system: MCF-7 and COS-7; test: .OH level, CCy-OH fluorescent probe imaging; format: cell-based; conditions: 12.5 μM for 5 h
[7] = system: MCF-7; test: Hoechst 33258 fluorescence staining, apoptosis; format: cell-based; conditions: 0, 5, 10, 20 μM for 24 h
Description: Hoechst 33258 is an active fluorescent dye with DNA specific binding, which is mainly combined with base area of DNA, which emits blue fluorescence when stimulated by ultraviolet light. The living cells emit uniform fluorescence, the apoptotic cells are bright blue fluorescence due to their chromatin fixation, dense and concentrated nuclei.
MCF-7 was treated with 0, 5, 10, 20 μM of CH-f and CH-j for 24 h, Hoechst 33258 fluorescence staining, and cell morphological changes were shown in FIG. 3-1. […] CH-f and CH-j are completely different from the cytotoxic drug HCPT, which appears to be apoptotic at low doses and necrotic at high doses in BGC-823.
FIG. 3-1 Hoechst 33258 staining results for MCF-7.

[8] = log P in Octanol/Water; format: physicochemical; conditions: Octanol/Water at 37° C.
Description: The solubility and log P of acetyl ChrysinMannich base derivatives see TABLE 1.
as §1
(about 20 times BA-f 277 μg/ml) and 564 μg/ml in water at 37° C. (about 1000 times BA-f 0.53m/ml). CH-f is BCS I (high solubility and permeability) and solubility presents the pH dependence. It is speculated that CH-f has more appropriate log P and solubility with entering systemic (blood system and tissue cells) than others solubility acetyl Chrysin Mannich base derivatives.

[9] = system: H-460 xenograft; test: H-460 xenograft in BALB/c nude mouse; format: in vivo; conditions: compared with before
Description: The anti-tumor effect of the BALB/c nude mouse model of the non-small cell lung cancer (H-460) was determined by the method [Scientific Reports, 2015, 5: 13626], and the results were shown in FIG. 7. 5 or 10 mg/kg of CH-j, for twice daily 10 days were compared with the control group.
FIG. 7: H-460 carcinoma in male BALB/c nude mice xenograft model, two times a day to fill the stomach to CH-j 5 and 10 mg/kg, for 10 days in a row, X-coordinate is experimental time (days), and Y-coordinate vertical volume of H-460 carcinoma (mm^3).

[10] = system: BGC-823; test: PI staining flow cytometry, cell cycle; format: cell-based; conditions: 24 h
Text: PI specificity is combined with DNA, and the fluorescence intensity is in a good linear relationship with the combination of PI. After cell fixation, PI staining was used for quantitative analysis of DNA content in cells by flow cytometry. Since the amount of DNA in different cell cycles varies, it can be determined that the drug actions on the cell cycle. In cell apoptosis, there are many characteristic changes in the cell and molecular level, and the most characteristic of the change of nucleus is the change of nucleus. Due to activate apoptosis cells, DNA degradation, reduce the cell DNA, and therefore can be in the GO/G1 peak appeared before a diploid apoptosis peak (sub-G1), […] pyrolysis peak integer times of DNA, no less than […] pyrolysis peak.
In addition, high concentrations of drugs can also reduce the proportion of S stage cells.
FIG. 3-2 PI staining results for BGC-823.

Chain of CDK1 (P06493 whole entry, species assumed): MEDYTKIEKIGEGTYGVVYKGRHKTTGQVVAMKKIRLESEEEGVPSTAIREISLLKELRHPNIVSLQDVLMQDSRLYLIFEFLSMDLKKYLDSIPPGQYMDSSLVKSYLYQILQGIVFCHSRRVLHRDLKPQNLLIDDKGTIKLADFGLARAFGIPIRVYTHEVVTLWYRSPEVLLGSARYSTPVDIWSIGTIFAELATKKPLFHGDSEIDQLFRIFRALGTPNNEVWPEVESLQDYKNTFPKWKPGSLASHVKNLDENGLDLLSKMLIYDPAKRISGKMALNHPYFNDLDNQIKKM
Chain of CDK1 (P14635 whole entry partner, species assumed): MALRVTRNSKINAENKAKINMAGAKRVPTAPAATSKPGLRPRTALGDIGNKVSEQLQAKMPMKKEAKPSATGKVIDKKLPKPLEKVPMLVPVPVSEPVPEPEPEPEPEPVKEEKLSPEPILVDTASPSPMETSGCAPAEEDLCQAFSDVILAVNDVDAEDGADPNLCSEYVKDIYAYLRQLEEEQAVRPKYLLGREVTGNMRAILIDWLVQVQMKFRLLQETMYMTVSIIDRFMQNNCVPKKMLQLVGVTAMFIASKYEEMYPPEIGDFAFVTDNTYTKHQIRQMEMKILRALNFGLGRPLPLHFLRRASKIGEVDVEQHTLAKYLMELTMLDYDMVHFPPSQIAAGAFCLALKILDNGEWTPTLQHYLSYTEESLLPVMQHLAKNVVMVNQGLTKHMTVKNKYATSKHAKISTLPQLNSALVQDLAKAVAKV

Dissolution ([1]; 0.05M NaAC-HAC buffered solution (pH4.5)): 90%
Dissolution ([1]; 0.1M HCl (pH1.2)): 62%
Dissolution ([1]; PBS (pH6.8)): < 1.0%
Dissolution ([1]; water): < 0.1%
CDK1 inhibition, times stronger than BA-j [5]: about 2 times
log P [8]: 1.64
logP ([8]; octanol/water): 1.63
Compound: CC(=O)c1c(O)c(CN2CCC(O)CC2)c2oc(-c3ccccc3)cc(=O)c2c1O [CH-j, 6-Acetyl-5,7-dihydroxy-8-(4-hydroxy-piperidin-1-ylmethyl)-2-phenyl-chromen-4-one]
Dose dependence of H2O2 level [2]: no significant dose-dependent manner
HIF-1β expression [3]: without affecting the expression of HIF-1β
Activation of caspase-3, 8, 9 [4]: activated caspase-3, 8, 9 both in a dose-dependent upward trend
CDK1 50% inhibitory concentration ([5]; read-out: inhibiting CDK1 CC50): 150 nM
Level of .OH, red fluorescence [6]: present red fluorescence in MCF-7 and no in COS-7
Apoptosis by Hoechst 33258 staining [7]: apoptosis cell percentage in dose dependent increase
Reduction rate of H-460 tumor ([9]; 5 mg/kg twice daily 10 days): 90.5%±9.2%
Reduction rate of H-460 tumor ([9]; 10 mg/kg twice daily 10 days): 95.2%±11.6%
Cell cycle effect by PI staining [10]: block the BGC-823 in G1, G2 phase
